# US12679805B2, “Bioactive substance exhibiting antimalarial activity, and use for same” (RIKEN, priority 2021, dated 2026)
# Values joined by “and” are separate entries in the source; they are usually repeats but may differ in a detail not shown here. Equal values may be shown once.
# Tests used:
# [1] = tested on: HL-60 cells; assay: Cytotoxicity (growth inhibitory activity), HL-60 cells; assay type: cell-based; details: for IC50: Homo sapiens
# From the text: (§1) Subsequently, the cytotoxicity of DHLC was examined. More specifically, the activity of DHLC to various types of cancer cells (Hela cells, HL-60 cells, MKN74 cells, NB-1 cells, T98G cells) were examined.
# [2] = tested on: wild-type Plasmodium falciparum (pf3D7 strain); assay: Antimalarial activity, pLDH Malstat analysis, wild-type Plasmodium falciparum (pf3D7 strain); assay type: cell-based
# Protocol: Specifically, first, a wild-type malarial parasite, Plasmodium falciparum (pf3D7 strain) was cultured in a human type-A Rh+ erythrocyte-containing solution prepared such that the hematocrit level was 3% in a hypoxic condition (O2 concentration: 5%, CO2 concentration: 5%). A culture medium used herein was a complete medium (Gibco, RPMI 1640 medium) containing 25 mM N-(2-hydroxyethyl)piperazine-N′-2-ethanesulfonic acid (HEPES), 10 […] glucose, 5 μg/mL gentamicin and 10% bovine serum albumin. Thereafter, DHLC solutions having 16 different concentrations within the range of 0.015 nM to 500 nM as shown in Table 2 were prepared using dimethyl sulfoxide (DMSO). Subsequently, to each of the wells of a 96 well microplate, 100 μl of a culture solution containing Plasmodium falciparum (pf3D7 strain) cultured in accordance with a method as mentioned above, was added, and then, 0.5 μl of a DHLC solution different in concentration was added to each well. Three sample sets were prepared in the same manner by adding 16 DHLC solutions different in concentration to wells, and then, allowed to stand still at 37° C. for 72 hours to expose Plasmodium falciparum (pf3D7 strain) to DHLC. Note that, each well contains the complete medium (RPMI medium), and the malarial parasite concentration was 0.3% and hematocrit level was 2%. Thereafter, the 96 well microplates containing samples were frozen at −80° C. overnight, and then, thawed at room temperature to hemolyze red blood cells. Lactate dehydrogenase (pLDH), which is an intracellular metabolic enzyme of malarial parasite, in the samples contained in individual wells, was stained with a Malstat reagent (Flow Inc.) in accordance with the protocol of Malstat analysis (Am. J. Trop. Med. Hyg. 48(6), 1993, pp. 739-741) known in the art and the absorbance thereof was measured at 620 nm. Based on the results, the infection rates (%) of cells with malarial parasite, at different concentrations of DHLC were calculated. Note that, a positive control used herein was a sample prepared by adding a solution prepared by diluting an existing antimalarial drug, i.e., chloroquine diphosphate, with distilled water, to wild-type Plasmodium falciparum (pf3D7 strain). A negative control used herein was a sample prepared by adding a solution prepared by diluting DMSO with distilled water, to a wild-type Plasmodium falciparum (pf3D7 strain). For measuring a background value, an erythrocyte-containing solution not infected with Plasmodium falciparum, was used.
# [3] = tested on: drug-resistant Plasmodium falciparum (K1); assay: Antimalarial activity against chloroquine-resistant Plasmodium falciparum (K1); assay type: cell-based; details: FIG. 1
# [4] = tested on: T98G cells; assay: Cytotoxicity (growth inhibitory activity), T98G cells; assay type: cell-based
# From the text: as §1
# [5] = tested on: MKN74 cells; assay: Cytotoxicity (growth inhibitory activity), MKN74 cells; assay type: cell-based
# From the text: as §1
# [6] = tested on: Hela cells; assay: Cytotoxicity (growth inhibitory activity), HeLa cells; assay type: cell-based; details: for IC50: Homo sapiens
# From the text: as §1
# [7] = tested on: NB-1 cells; assay: Cytotoxicity (growth inhibitory activity), NB-1 cells; assay type: cell-based; details: Homo sapiens, NB1
# From the text: as §1
# [8] = tested on: Plasmodium falciparum; details: reported in Non Patent Literature 1; cited from earlier work
compound,measurement,setting,value
C\C=C(/C=C(C)/C=C/C=C/C=C(\C)C(=O)C1CC(O)(CCO)NC1=O)C(=O)OC (stereo not drawn) [DHLC],IC50,[1],3.4 µg/mL
same,pf3D7(%) infection rate of cells with malarial parasite,"[2]; 0.015 nM, 72 hours",98.9%
same,pf3D7(%) infection rate of cells with malarial parasite,"[2]; 0.03 nM, 72 hours",109.8%
same,pf3D7(%) infection rate of cells with malarial parasite,"[2]; 0.06 nM, 72 hours",89.4%
same,pf3D7(%) infection rate of cells with malarial parasite,"[2]; 0.12 nM, 72 hours",92.9%
same,pf3D7(%) infection rate of cells with malarial parasite,"[2]; 0.24 nM, 72 hours",77.2%
same,pf3D7(%) infection rate of cells with malarial parasite,"[2]; 0.49 nM, 72 hours",74.1%
same,pf3D7(%) infection rate of cells with malarial parasite,"[2]; 0.98 nM, 72 hours",41.7%
same,pf3D7(%) infection rate of cells with malarial parasite,"[2]; 1.95 nM, 72 hours",28.2%
same,pf3D7(%) infection rate of cells with malarial parasite,"[2]; 3.90 nM, 72 hours",22.9%
same,pf3D7(%) infection rate of cells with malarial parasite,"[2]; 7.81 nM, 72 hours",23.7%
same,pf3D7(%) infection rate of cells with malarial parasite,"[2]; 15.63 nM, 72 hours",13.3%
same,pf3D7(%) infection rate of cells with malarial parasite,"[2]; 31.25 nM, 72 hours",9.6%
same,pf3D7(%) infection rate of cells with malarial parasite,"[2]; 62.5 nM, 72 hours",14.3%
same,pf3D7(%) infection rate of cells with malarial parasite,"[2]; 125 nM, 72 hours",10.2%
same,pf3D7(%) infection rate of cells with malarial parasite,"[2]; 250 nM, 72 hours",8.5%
same,pf3D7(%) infection rate of cells with malarial parasite,"[2]; 500 nM, 72 hours",13.9%
same,IC50,"[2]; Plasmodium falciparum, pf3D7 strain, 72 hours, read-out: growth inhibitory activity (IC50 value)",0.65 nM and 0.00026 µg/mL
same,antimalarial activity relative to NG-391,[2]; versus NG-391 IC50=0.75 μg/ml,≥ 1000 times
same,antimalarial activity relative to lucilactaene,[2]; versus lucilactaene IC50=0.063 μg/ml,≥ 100 times
same,antimalarial activity against drug-resistant Plasmodium falciparum (K1),[3],as high as against wild-type Plasmodium falciparum
same,growth inhibitory activity (IC50 value),[4],>30 µg/mL
same,IC50,[4]; Homo sapiens,> 30 µg/mL
same,growth inhibitory activity (IC50 value),[5],>30 µg/mL
same,IC50,"[5]; Homo sapiens, MKN-74",> 30 µg/mL
same,IC50,[6],21 µg/mL
same,IC50,[7],0.34 µg/mL
C\C=C(/C=C(C)/C=C/C=C/C=C(\C)C(=O)[C@]12O[C@H]1C(O)(CCO)NC2=O)C(=O)OC (stereo partly drawn) [NG-391],IC50,[1],6.6 µg/mL
same,antimalarial activity IC50,[8],0.75 µg/mL
same,IC50,[6],5.9 µg/mL
C\C=C(/C=C(C)/C=C/C=C/C=C(\C)C(=O)[C@H]1C(=O)N[C@]2(O)CCO[C@H]12)C(=O)O [Demethyl lucilactaene],growth inhibitory activity (IC50 value),[1],>30 µg/mL
same,growth inhibitory activity (IC50 value),[6],>30 µg/mL
C\C=C(/C=C(C)/C=C/C=C/C=C(\C)C(=O)[C@H]1C(=O)N[C@]2(O)CCO[C@H]12)C(=O)OC [Lucilactaene],IC50,[1],7 µg/mL
same,antimalarial activity IC50,[8],0.063 µg/mL
same,antimalarial effect relative to NG-391,[8],about 12 times
same,IC50,[6],10 µg/mL
